According to patent US7727972B2, “Methods for determining absorption of cobalamin or analogues thereof” (DrugTech Corporation, priority 2004, dated 2010):

System: Anti haptocorrin antibodies (ELISA)
Assay: Cross-reactivity of the haptocorrin ELISA towards other cobalamin binding proteins
Set-up: species or system rabbit
Settings: 60 nmol/L in the assay mixture
Description: Antibodies. Anti haptocorrin was produced by DakoCytomation A/S, Denmark by immunising rabbits with 200 μg pure haptocorrin produced as previously described (12) and deglycosylated as described above. The gamma globulin fraction was pre-pared (13) from serum obtained after 7 immunisations.
ELISA. The principle of the ELISA assay used was an immobilised capture antibody (0.1 ug gamma globulin/well, rabbit nr F7773) catching the analyte and a biotinylated detection antibody (gamma globulin 3 ug/L, rabbit nr 7772) visualised by avidin/Horse Radish Peroxidase (HRP). Colour development by addition of 3,3′,5,5′-tetramethyl-benzidin was proportional to the concentration of analyte. The assay procedure was as previously described for transcobalamin (14, 15). In brief, calibrator, sample or control (100 μL, final dilution 1:30) was incubated for 1 hour at room temperature prior to washing and incubation for 30 min with the biotinylated detection antibody. The attached biotinylated antibody was detected employing avidin/HRP and colour development was determined by measuring the absorbance at 420 nm and correcting for the absorbance at 620 nm. The calibrator employed was deglycosylated pure human haptocorrin. All samples were run in true duplicates, where deglycosylation was performed on two independent samples.
Samples. […]

Substance: intrinsic factor: cobalamin binding protein; pure IF dissolved in phosphate buffer 0.1 M containing albumin 0.1%
- cross-reactivity in haptocorrin ELISA: No cross-reactivity
